Laboratory results as given in article PMC7737769, “Pharmacological inhibition of syntenin PDZ2 domain impairs breast cancer cell activities and exosome loading with syndecan and EpCAM cargo” (Journal of Extracellular Vesicles, 2020).
“Also recorded” adds a separate entry of the source.

Experiments:
Erbin‐P0071 complex = tested on: T1, Erbin‐P0071 complex; assay: HTRF assay, Erbin-P0071 interaction; format: biochemical, human
T1 construct: human Erbin PDZ domain; made in house; host or cells: E. coli BL21 (DE3)
Protocol: (§1) HTRF assays were performed in white 96Well Small VolumeHiBase Polystyrene Microplates (Greiner) with a total working volume of […], as described previously (Milhas et al., 2016). Briefly, compounds were firstly dispensed into the wells at 400 µM for the primary screen or with serial DMSO dilutions for IC50 measurement assays. Primary screening assays have been performed in monoplicate while IC50 measurements were performed in triplicates. All HTRF reagents were purchased from CisBio Bioassays and reconstituted according to the supplier protocols. The plates were spun for 3 min at 500 × g and then incubated at 4°C for 16 h. The HTRF signals were recorded on a POLAR star Omega plate reader (BMG Labtech) with an excitation filter at 337 nm and fluorescence wavelength measurement at 620 and 665 nm, an integration delay of 60 µs and an integration time of 400 µs. Results were analysed with a two‐wavelength signal ratio: [intensity (665 nm)/intensity (620 nm)] × 10^4. Percentage of inhibition was calculated using the following equation: % inhibition = [(compound signal)–(min signal)]/[(max signal)–(min signal)] × 100, where ‘max signal’ is the signal ratio with the compound vehicle alone (DMSO) and ‘min signal’ the signal ratio without protein B. For IC50 measurements, values were normalized and fitted with Prism (GraphPad software) using the following equation: Y = 100/(1+((X/ IC50)ˆHill slope)).
(§2) The search strategy for PDZ2 syntenin inhibitors was based on the PDZ targeted library developed from Enamine compound collection. The PDZ targeted library was developed to cover virtually all PDZ domains. Consequently, to create the syntenin PDZ2 focused library we used two independent paths: docking of the PDZ targeted library against structures of syntenin PDZ2 available in Protein Data Bank and a random selection from the PDZ targeted library. The docking has produced 21 virtual hits, which were added to 118 randomly selected compounds (10% of the pan PDZ library). The resultant set of 139 compounds, syntenin PDZ library was subjected to experimental validation. The primary screen was performed at 400µM using a previously validated Homogeneous Time Resolved Fluorescence (HTRF) assay (Milhas et al., 2016). HTRF is based on Fluorescence Resonance Energy Transfer (FRET) between two fluorescent reagents. In the present case, Anti‐GST‐Terbium antibody and streptavidin‐bound Dynamic2 were used as donor and acceptor respectively. Interactions between GST PDZ‐fusion proteins and biotinylated peptides containing PDZ binding motifs were challenged with the potential inhibitors. In parallel, control experiments were performed with a biotinylated‐GST to verify that compounds were not interfering with the FRET signal in a non‐specific manner. To identify inhibitors of syntenin PDZ interactions, we tested for the effect of the 139 compounds on syntenin‐SDC2 and syntenin‐Frizzled7 complexes (Figure 1a; Table S1). When the HTRF signal dropped below 0.9, inhibition was considered as effective. […] Noteworthy, these compounds had no effect on other PDZ complexes like GRASP55‐JAM‐B or GRASP55‐JAM‐C and Erbin‐Erbb2 or Erbin‐P0071 (Figure 1c).

GRASP55‐JAM‐B complex = tested on: T2, GRASP55‐JAM‐B complex; assay: HTRF assay, GRASP55-JAM-B interaction; format: biochemical, human
T2 construct: Human GRASP55 tandem PDZ; made in house; host or cells: E. coli BL21 (DE3)
Protocol: as §1, §2

MCF‐7 cells [1] = assay: Cancer cell viability (Annexin V/7-AAD flow cytometry), MCF-7; format: cell-based; details: MCF-7, concentrations up to 100 µM, 48 h
Protocol: (§3) The effects of the compounds C58 and SyntOFF were tested both on MCF‐7 and MCF‐7 SyntKO cells. Briefly, the cells were treated with increasing concentrations of the compounds for 48 h and early/late apoptosis was measured by using the FITC Annexin V apoptosis detection kit with 7‐AAD (Biolegend, San Diego, CA, USA) according to the manufacturer. Annexin V positive but 7‐AAD negative (early apoptotic cells) and Annexin V positive and 7‐AAD positive (late stage apoptosis) was determined by using FACS LSRII flow cytometer (BD Biosciences) and data were analysed with Flowjo software (Tree Star).

MCF‐7 SyntKO cells = assay: Cancer cell viability (Annexin V/7-AAD flow cytometry), MCF-7 SyntKO; format: cell-based; details: concentrations up to 100 µM, 48 h
Protocol: as §3

MCF‐7 cells [2] = assay: Wound-healing (migration) assay, MCF-7; format: cell-based; details: MCF-7, 100 µM, 24 h
Protocol: For migration assays, cells were treated with 1 ng/ml of mitomycin (Sigma M4287) overnight to inhibit cell division. Treated cells were plated in Ibidi culture‐inserts (Ibidi Cat‐80206) for 12 h to reach 90%–95% of confluence with or without compounds (100 µM). A wound was created by removing inserts from the dishes. Medium with or without compounds (100 µM) was refreshed to remove dead cells and the cells were observed under an inverted light microscope (Leica SP2) equipped with a camera. Images were taken by MetaMorph software every 10 min for 24 h. Measurements of cell velocity were calculated using the MetaMorph software.

GRASP55‐JAM‐C complex = tested on: T3, GRASP55‐JAM‐C complex; assay: HTRF assay, GRASP55-JAM-C interaction; format: biochemical, human; details: 400µM compound; Figure 1c
T3 construct: Human GRASP55 tandem PDZ; made in house; host or cells: E. coli BL21 (DE3)
Protocol: as §1, §2

[3] = Chemical solubility and stability in PBS; format: physicochemical; details: aqueous buffer; PBS pH 7.4 22°C

Row | SMILES | GST-Erbin P0071 (signal ratio) (Erbin‐P0071 complex; 400µM compound, Figure 1c) | GST-GRASP JAM-B (signal ratio) (GRASP55‐JAM‐B complex; 400µM compound, Figure 1c) | toxicity (cell viability) (MCF‐7 cells [1]) | toxicity (cell viability) (MCF‐7 SyntKO cells) | cell migration (wound closure) (MCF‐7 cells [2]) | GST-GRASP JAM-C (signal ratio) (GRASP55‐JAM‐C complex) | effect on Erbin‐P0071 complex (Erbin‐P0071 complex; HTRF dose-response, Figure S2a) | effect on GRASP55‐JAM‐B complex (GRASP55‐JAM‐B complex; HTRF dose-response, Figure S2b) | solubility [3]
1 | CC(C)[C@H](NC(=O)CSc1ccc(Cl)cc1)C(=O)O [Compound C58] | 1 | 1.1 | not toxic; also recorded: non‐toxic | not toxic | decreases | 1 | – | – | –
2 | CC(C)[C@H](NC(=O)CCSc1ccc(Cl)cc1)C(=O)O [SyntOFF, (S)‐2‐(3‐(4‐chlorophenylthio)propanamido)‐3‐methylbutanoic acid] | – | – | non‐toxic | – | – | – | not affecting | not affecting | > 2300 µg/mL
